Measured values taken from patent US5068325A, “4,5,7,8-tetrahydro-6H-thiazolo[5,4-d]azepines, their preparation and their use as pharmaceutical compositions” (priority 1988, dated 1991).

Tests used:
dopamine D2-receptors = dopamine D2-receptors (Rattus norvegicus, UniProt P61169); assay: affinity for dopamine D2-receptors by displacement experiments with [3H]-spiperone (rat striatum membranes); assay type: binding; conditions: for Ki: [3H]-spiperone, high-affinity form of the dopamine receptor; for α2-IC50 / D2-Ki: relative affinity for dopamine-D2 receptors compared with α2-adrenoceptors, the higher, the higher the D2/α2 selectivity
dopamine D2-receptors, sequence (P61169 whole entry): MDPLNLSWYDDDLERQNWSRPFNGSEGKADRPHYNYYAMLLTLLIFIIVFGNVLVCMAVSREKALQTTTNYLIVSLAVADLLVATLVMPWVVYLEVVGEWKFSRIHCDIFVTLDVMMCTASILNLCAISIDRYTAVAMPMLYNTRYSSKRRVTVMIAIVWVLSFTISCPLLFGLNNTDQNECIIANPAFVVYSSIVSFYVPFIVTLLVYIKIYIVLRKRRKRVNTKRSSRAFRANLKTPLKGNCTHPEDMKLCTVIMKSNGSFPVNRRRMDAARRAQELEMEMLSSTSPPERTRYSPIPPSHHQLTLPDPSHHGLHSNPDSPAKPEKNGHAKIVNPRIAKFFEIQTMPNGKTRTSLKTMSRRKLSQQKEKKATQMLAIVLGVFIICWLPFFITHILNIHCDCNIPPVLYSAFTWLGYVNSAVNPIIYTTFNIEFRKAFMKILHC
Experimental: 1Determining the affinity for dopamine D2-receptors by displacement experiments with [^3 H]-spiperone (Modified Method of W. Billard et al., Life Sci. 35, 1885 (1984) and D. J. de Vries and P. M. Beart, Eur. J. Pharmacol. 109, 417 (1985))
Male rats (of the Chbb:Thom strain weighing about 200 g) were killed by a blow to the back of the neck. The brains were removed and dissected on ice. The striata were dissected out, weighed and homogenised in 25 volumes of tris buffer (50 mM tris-HCl, 1 mM EDTA, 5 mM MgCl2 and 1 mM ascorbic acid) for 30 seconds in an Ultra-Turrax at maximum speed, followed by 10 cycles in a Potter-Elvehjem at 1400 rpm. The pellet obtained after centrifuging at 50,000×g at 4° C. for 15 minutes was again taken up in 25 ml of tris buffer and centrifuged under the above conditions. The supernatant was discarded and the pellet obtained was incubated in 25 ml of tris buffer at 37° C. for 30 minutes and then centrifuged again at 50,000×g at 4° C. for 15 minutes. Finally, the pellet obtained was mixed with tris buffer to obtain a homogenate dilution of 1:500 (based on the weight of the striata).
1 ml aliquots of the membrane preparation were incubated with 1 ml of a solution of 0.25 nM [^3 H]-spiperone ([…], Messrs. DuPont NEN) and at increasing concentrations of the test substance (10^-11 to 10^-4 M) at ambient temperature for one hour. Incubation was ended by the addition of 5 ml of ice cold tris buffer and filtration using Whatman GF/B filters. The filters were washed twice, each time with 5 ml of ice cold buffer. The radioactivity of the filters was determined by liquid scintillation measurement in Instagel^(R) (Messrs. Canberra Packard). Non-specific binding was determined in the presence of 10^-5 M haloperidol (Sigma Chemical Co.).
Displacement curves were obtained from the data using the TOPFIT programming package (G. Heinzel in "Pharmacokinetics During Drug Development: Data Analysis and Evaluation Techniques", G. Bozler and J. M. van Rossum Eds., G. Fischer Verlag, Stuttgart 1982, 207).

alpha-2 receptors = molecular target: T1, alpha-2 receptors (Rattus norvegicus, UniProt P22909); assay: affinity for alpha-2 receptors by displacement experiments with [3H]-clonidine (rat cortex membranes); assay type: binding; conditions: read-out: α2-IC50
T1 sequence (P22909 1-465): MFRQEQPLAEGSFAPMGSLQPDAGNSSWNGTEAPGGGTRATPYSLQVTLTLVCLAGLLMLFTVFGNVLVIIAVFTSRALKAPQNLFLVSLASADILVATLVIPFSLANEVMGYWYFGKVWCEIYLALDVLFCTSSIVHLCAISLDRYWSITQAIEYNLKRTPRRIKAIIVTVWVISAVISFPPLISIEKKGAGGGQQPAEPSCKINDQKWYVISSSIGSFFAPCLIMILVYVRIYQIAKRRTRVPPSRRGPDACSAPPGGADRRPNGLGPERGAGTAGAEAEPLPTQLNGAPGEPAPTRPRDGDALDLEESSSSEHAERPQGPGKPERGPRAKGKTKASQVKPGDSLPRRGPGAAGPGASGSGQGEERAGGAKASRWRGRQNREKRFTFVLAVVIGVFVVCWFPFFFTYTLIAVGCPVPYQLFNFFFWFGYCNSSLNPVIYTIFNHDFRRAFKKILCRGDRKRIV

MPTP monkeys = assay: post-synaptic dopaminergic activity in MPTP monkeys; assay type: in vivo, rhesus monkey; conditions: for minimal effective dose: Primates, in Macaca mulatta, im, rhesus monkeys, i.m., read-out: minimum dose (MED) required to alleviate the Parkinson's symptoms; for effect on MPTP-induced symptoms: MPTP-treated rhesus monkeys
Excerpt: 6. Determining the post-synaptic dopaminergic activity in MPTP monkeys (Modified Method of R. S. Burns et al., Proc. Natl. Acad. Sci. 80. 4546 (1983))
The neurotoxin 1-methyl-4-phenyl-1,2,3,6- tetrahydro-pyridine (MPTP) produces in humans and monkeys an irreversible syndrome which in its clinical, pathological, biochemical and pharmacological appearance is very similar to idiopathic Parkinson's disease (Markey et al., Nature 311, 464 (1984)). The reason for this similarity is that MPTP selectively destroys those dopaminergic nerve cells in the substantia nigra of the brain which are also lost by degenerative processes in Parkinson's disease. There is even some discussion that MPTP or an MPTP-like substance might be formed in the body and trigger Parkinson's disease (S. H. Snyder, Nature 311, 514 (1984)). Possibly because of the specific MPTP metabolism, the clinical formation of the MPTP-induced Parkinson syndrome has hitherto been detected only in humans and monkeys. The MPTP model produced in the rhesus monkey is therefore exceptionally suitable for testing the activity of post-synaptically acting dopamine agonists. For this purpose, rhesus monkeys were given MPTP in overall doses of up to about 6 mg/kg of body weight, until the following symptoms appeared: The animals were akinetic and unable to take water and food.
It is clear that with the compounds according to the invention there is no sedative effect or ataxia at a dosage which is several times the MED, which can be put down to the absence of a corresponding activity mediated by the α2- receptors.

Structure (SMILES)	Ki (dopamine D2-receptors) [nM]	α2-IC50 / D2-Ki (dopamine D2-receptors)	IC50 (alpha-2 receptors) [nM]	further results
Nc1nc2c(s1)CCN(CC=Cc1ccc(Cl)cc1)CC2 [Example 3a, 2-Amino-6-(3-(4-chloro-phenyl)allyl)-4,5,7,8-tetrahydro-6H-thiazolo[5,4-d]azepine]	7	88	620	
Cl.Cl.Nc1nc2c(s1)CCN(CCCc1ccccc1)CC2 [Example 3b, 2-Amino-6-(3-phenyl-propyl)-4,5,7,8-tetrahydro-6H-thiazolo[5,4-d]azepine-dihydrochloride]	24	145	810	
COc1ccc(OC)c(C=CCN2CCc3nc(N)sc3CC2)c1 [Example 4p, 2-Amino-6-(3-(2,5-dimethoxy-phenyl)allyl)-4,5,7,8-tetrahydro-6H-thiazolo[5,4-d]azepine]	0.89	100	89	Duration of activity (MPTP monkeys; 0.05 mg/kg i.m. (MED)): ~ 2 hours; Side effects (MPTP monkeys; 0.05 mg/kg i.m. (MED)): none; Duration of activity (MPTP monkeys; 0.30 mg/kg i.m.): 2.0 to 5 h; Side effects (MPTP monkeys; 0.30 mg/kg i.m.): none; minimal effective dose (MPTP monkeys): 0.05 mg/kg
CC(C)COc1ccc(C=CCN2CCc3nc(N)sc3CC2)cc1 [Example 8n, 2-Amino-6-(3-(4-isobutoxy-phenyl)allyl)-4,5,7,8-tetrahydro-6H-thiazolo[5,4-d]azepine]	15	133	2000	
Cc1nc(C=CCN2CCc3nc(N)sc3CC2)cs1 [Example 9, 2-Amino-6-(3-(2-methyl-4-thiazolyl)allyl)-4,5,7,8,-tetrahydro-6H-thiazolo[5,4-d]azepine-semihydrate]	6.7	79	530	
Nc1nc2c(s1)CCN(CC#Cc1ccccn1)CC2 [Example 10, 2-Amino-6-(3-(2-pyridyl)-2-propyn-1-yl)-4,5,7,8-tetrahydro-6H-thiazolo[5,4-d]azepine]	17	882	15000	
Nc1nc2c(s1)CCN(CC=Cc1cccc(Cl)n1)CC2 [Example 11, 2-Amino-6-(3-(6-chloro-2-pyridyl)allyl)-4,5,7,8-tetrahydro-6H-thiazolo[5,4-d]azepine]	3.2	256	820	
Cc1cccnc1C=CCN1CCc2nc(N)sc2CC1 [Example 11i, 2-Amino-6-(3-(3-methyl-2-pyridyl)allyl)-4,5,7,8-tetrahydro-6H-thiazolo[5,4-d]azepine]	2.6	576	1500	Duration of activity (MPTP monkeys; 0.05 mg/kg i.m. (MED)): ~ 1.5 hours; Side effects (MPTP monkeys; 0.05 mg/kg i.m. (MED)): none; Duration of activity (MPTP monkeys; 0.20 mg/kg i.m.): 2.0 to 5 h; Side effects (MPTP monkeys; 0.20 mg/kg i.m.): none; minimal effective dose (MPTP monkeys): 0.05 mg/kg
Nc1nc2c(s1)CCN(CC=Cc1ccccc1O)CC2 [Example 15, 2-Amino-6-(3-(2-hydroxy-phenyl)allyl)-4,5,7,8-tetrahydro-6H-thiazolo[5,4-d]azepine]	0.95	621	590	
Nc1nc2c(s1)CCN(CC=Cc1ccccc1N)CC2 [Example 16, 2-Amino-6-(3-(2-amino-phenyl)allyl)-4,5,7,8-tetrahydro-6H-thiazolo[5,4-d]azepine]	1.4	285	400	
CN1CCc2cccc3c2[C@H]1Cc1ccc(O)c(O)c1-3 [apomorphine, reference compound]				effect on MPTP-induced symptoms (MPTP monkeys): temporary cessation of this phenomenon
N[C@@H](Cc1ccc(O)c(O)c1)C(=O)O [levodopa, reference compound]				effect on MPTP-induced symptoms (MPTP monkeys): temporary cessation of this phenomenon

Second part, led by results:

Ki (dopamine D2-receptors) [nM]	α2-IC50 / D2-Ki (dopamine D2-receptors)	IC50 (alpha-2 receptors) [nM]	Structure (SMILES)	further results
3	63	190	Nc1nc2c(s1)CCN(CC=Cc1ccccc1Cl)CC2 [Example 4e, 2-Amino-6-(3-(2-chloro-phenyl)allyl)-4,5,7,8-tetrahydro-6H-thiazolo[5,4-d]azepine]	
2	120	240	Nc1nc2c(s1)CCN(CC=Cc1ccccc1[N+](=O)[O-])CC2 [Example 4g, 2-Amino-6-(3-(2-nitro-phenyl)allyl)-4,5,7,8-tetrahydro-6H-thiazolo[5,4-d]azepine]	
13	157	2050	Nc1nc2c(s1)CCN(CC=Cc1ccc([N+](=O)[O-])cc1)CC2 [Example 4i, 2-Amino-6-(3-(4-nitro-phenyl)allyl)-4,5,7,8-tetrahydro-6H-thiazolo[5,4-d]azepine]	
1.3	423	550	COc1cccc(C=CCN2CCc3nc(N)sc3CC2)c1OC [Example 4o, 2-Amino-6-(3-(2,3-dimethoxy-phenyl)allyl)-4,5,7,8-tetrahydro-6H-thiazolo[5,4-d]azepine]	
8	287	2300	Nc1nc2c(s1)CCN(CC=Cc1ccccc1-c1ccccc1)CC2 [Example 4v, 2-Amino-6-(3-(2-biphenyl)allyl)-4,5,7,8-tetrahydro-6H-thiazolo[5,4-d]azepine]	
8.4	452	3800	Nc1nc2c(s1)CCN(CC=Cc1ccc(OCc3ccccc3)cc1)CC2 [Example 4z, 2-Amino-6-(3-(4-benzyloxy-phenyl)allyl)-4,5,7,8-tetrahydro-6H-thiazolo[5,4-d]azepine]	
14	235	3300	Nc1nc2c(s1)CCN(CC(=Cc1ccccc1)c1ccccc1)CC2 [Example 8o]	
